The values below come from patent US8901118B2, “Compounds and methods for kinase modulation, and indications therefor” (Plexxikon Inc., priority 2010, dated 2014).

Bounds are passed on as bounds.

One assay has as its target CYP2D6 (Homo sapiens, UniProt P10635). Kind of assay: CYP2D6 inhibition (fluorescent substrate AMMC). It counts as in vitro ADME. As to conditions: read-out: Cyp IC50 2D6. As for the experimental part:
CYP (Cytochrome P450) enzymes are the major drug metabolizing enzymes present in the liver. The inhibition of CYP enzyme activity (IC50) for each of CYP1A2, CYP2C19, CYP2C9, CYP2D6, CYP3A4(BFC) and CYP3A4(BQ) is determined for compounds, where inhibition of metabolism of a known substrate leads to a decrease in the fluorescence of the metabolized product. The fluorescence of the product is monitored as a function of compound concentration. Compounds are dissolved in DMSO to a concentration of 100 mM. These are diluted 1 μL into 82 μL of acetonitrile. An 11 μL aliquot of this solution is then added to 204 μL of cofactor mix (1.3% NADPH Regeneration system Solution A, 1.04% NADPH Regeneration system Solution B from BD Biosciences, 5% acetonitrile and 0.05% DMSO). These are then serially diluted 1:1 (160 μL to 160 μL co-factor mix) for a total of 10 points. A 10 μL aliquot of this final mixture is dispensed into 384 well assay plates and incubated for 10 minutes at 37° C. […] Assay plates are incubated at 37° C. (CYP1A2-15 min; CYP2C9-45 min; CYP2C19, 2D6 and 3A4-30 min) and read in a Tecan Safire 2 plate reader (CYP1A2, 2C19 and 3A4 409 ex/460 em; CYP2C9 and 2D6 409 ex/530 em). The signal versus compound concentration is used to determine the IC50. The enzymes and substrates for this assay are obtained from BD Biosciences.

The target of another assay is Fms kinase (Homo sapiens, UniProt P07333). Briefly: Fms kinase biochemical activity assay (AlphaScreen, biotin-(E4Y)10 phosphorylation). As to conditions: 100 μM ATP; read-out: Biochemical Inhibition IC50 Fms. As for the experimental part: In one assay the biochemical activity IC50 values are determined with respect to inhibition of Fms kinase activity, where inhibition of phosphorylation of a peptide substrate is measured as a function of compound concentration. Compounds to be tested, dissolved in DMSO (1 μL), are added to a white 384-well plate (Costar #3705). Working stocks of Fms kinase (Invitrogen #PV3249), biotin-(E4Y)10 substrate (Upstate Biotech, Cat#12-440), and ATP (Sigma, Cat#A-3377) are prepared in 25 mM Hepes pH 7.5, 0.5 mM MgCl2, 2 mM MnCl2, 2 mM DTT, 0.01% BSA, and 0.01% Tween-20. All components are added to the 384-well plate for a final concentration of 1 ng/well Fms, 30 nM biotin-(E4Y)10 (Upstate Biotechnology) and 100 μM ATP in a volume of 20 μL. Each sample is at 5% DMSO. The plate is then incubated for 20 minutes at 30° C. Just before use, working stocks of donor and acceptor beads from the AlphaScreen PY20 Detection Kit (PerkinElmer, Cat#676601M) are prepared in 25 mM Hepes pH 7.5, pH 7.4, 100 mM EDTA, 0.01% BSA. To stop the reaction, the plate is uncovered in the dark and 5 μL of Donor Beads solution (Streptavidin beads) is added to each well. The plate is incubated at room temperature for 20 minutes. Five microliters of Acceptor Beads solution (PY20 coated beads) are then added to each well. The final concentration of each bead is 10 μg/mL. The plates are incubated at room temperature for 60 minutes. Fluorescence signal is recorded on the Envision reader. Phosphorylated substrate results in binding of the PY20 antibody and association of the donor and acceptor beads such that signal correlates with kinase activity. The signal vs. compound concentration is used to determine the IC50.
(Bead proximity is the source of the signal in Alpha formats.)

A further assay deals with TrkA kinase (Homo sapiens, UniProt P04629). Briefly: TrkA kinase biochemical activity assay (AlphaScreen). As to conditions: 100 μM ATP; read-out: Biochemical Inhibition IC50 TrkA. As for the experimental part: In one assay the biochemical activity IC50 values are determined with respect to inhibition of TrkA kinase activity, where inhibition of phosphorylation of a peptide substrate is measured as a function of compound concentration. Compounds to be tested, dissolved in DMSO (1 μL), are added to a white 384-well plate (Costar #3705). Working stocks of TrkA kinase (UBI), biotin-(E4Y)10 substrate (Upstate Biotech, Cat#12-440), and ATP (Sigma, Cat#A-3377) are prepared in 25 mM Hepes pH 7.5, 10 mM MnCl2, 1 mM DTT, 0.01% BSA, and 0.01% Tween-20. All components are added to the 384-well plate for a final concentration of 1 ng/well TrkA, 30 nM biotin-(E4Y)10 and 100 μM ATP in a volume of 20 μL. Each sample is at 5% DMSO. The plate is shaken for 1 minute at 1200 rpm, spun for 1 minute at 1000 rpm, then incubated for 40 minutes at room temperature. Just before use, working stocks of donor and acceptor beads from the AlphaScreen PY20 Detection Kit (PerkinElmer, Cat#676601M) are prepared in 25 mM Hepes pH 7.5, 100 mM EDTA. 0.01% BSA. Donor Beads solution (Streptavidin beads) is added (5 μL) to each well to final bead concentration of 10 μg/mL. The plate is incubated at room temperature for 20 minutes. Acceptor Beads solution (PY20 coated beads) are then added to each well (5 μL) to a final concentration of bead at 10 μg/mL. The plates are incubated at room temperature for 60 minutes. Fluorescence signal is recorded on the Envision reader. Phosphorylated substrate results in binding of the PY20 antibody and association of the donor and acceptor beads such that signal correlates with kinase activity. The signal vs. compound concentration is used to determine the IC50. Similar assays are used for TrkB and Trk C kinase.
Chain of TrkA kinase (P04629 33-796): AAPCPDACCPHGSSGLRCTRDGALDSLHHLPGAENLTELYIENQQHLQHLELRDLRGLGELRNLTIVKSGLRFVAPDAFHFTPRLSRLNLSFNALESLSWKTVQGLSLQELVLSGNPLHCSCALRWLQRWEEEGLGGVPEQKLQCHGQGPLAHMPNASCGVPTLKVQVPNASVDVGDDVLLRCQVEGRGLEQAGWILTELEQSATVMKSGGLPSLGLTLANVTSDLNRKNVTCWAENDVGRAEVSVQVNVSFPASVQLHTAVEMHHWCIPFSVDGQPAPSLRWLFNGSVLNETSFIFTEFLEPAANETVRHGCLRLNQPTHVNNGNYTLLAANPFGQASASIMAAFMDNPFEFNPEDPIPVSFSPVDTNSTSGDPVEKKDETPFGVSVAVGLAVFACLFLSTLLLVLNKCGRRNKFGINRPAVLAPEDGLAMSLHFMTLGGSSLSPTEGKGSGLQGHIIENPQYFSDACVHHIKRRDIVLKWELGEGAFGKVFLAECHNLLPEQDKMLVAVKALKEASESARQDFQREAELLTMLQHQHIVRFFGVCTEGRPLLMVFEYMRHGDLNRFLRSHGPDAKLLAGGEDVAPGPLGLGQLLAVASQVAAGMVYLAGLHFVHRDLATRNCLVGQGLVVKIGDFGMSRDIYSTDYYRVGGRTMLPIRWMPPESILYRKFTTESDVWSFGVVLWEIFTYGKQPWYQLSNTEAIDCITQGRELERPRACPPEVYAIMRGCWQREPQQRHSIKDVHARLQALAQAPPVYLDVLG

Chain of CYP2D6 (P10635 whole entry): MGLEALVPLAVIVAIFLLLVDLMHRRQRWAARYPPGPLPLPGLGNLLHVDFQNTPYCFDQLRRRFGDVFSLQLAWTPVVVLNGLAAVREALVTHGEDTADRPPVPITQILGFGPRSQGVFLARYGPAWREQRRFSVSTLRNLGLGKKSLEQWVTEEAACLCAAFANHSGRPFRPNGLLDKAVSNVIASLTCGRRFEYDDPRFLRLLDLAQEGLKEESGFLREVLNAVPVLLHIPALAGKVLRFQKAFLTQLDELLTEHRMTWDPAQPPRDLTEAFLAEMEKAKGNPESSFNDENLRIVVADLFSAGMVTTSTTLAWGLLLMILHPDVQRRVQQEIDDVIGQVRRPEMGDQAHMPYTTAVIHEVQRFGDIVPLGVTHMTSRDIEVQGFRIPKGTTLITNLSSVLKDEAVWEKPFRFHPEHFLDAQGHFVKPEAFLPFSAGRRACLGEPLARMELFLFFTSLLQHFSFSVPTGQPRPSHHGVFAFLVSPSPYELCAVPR
Chain of Fms kinase (P07333 20-972): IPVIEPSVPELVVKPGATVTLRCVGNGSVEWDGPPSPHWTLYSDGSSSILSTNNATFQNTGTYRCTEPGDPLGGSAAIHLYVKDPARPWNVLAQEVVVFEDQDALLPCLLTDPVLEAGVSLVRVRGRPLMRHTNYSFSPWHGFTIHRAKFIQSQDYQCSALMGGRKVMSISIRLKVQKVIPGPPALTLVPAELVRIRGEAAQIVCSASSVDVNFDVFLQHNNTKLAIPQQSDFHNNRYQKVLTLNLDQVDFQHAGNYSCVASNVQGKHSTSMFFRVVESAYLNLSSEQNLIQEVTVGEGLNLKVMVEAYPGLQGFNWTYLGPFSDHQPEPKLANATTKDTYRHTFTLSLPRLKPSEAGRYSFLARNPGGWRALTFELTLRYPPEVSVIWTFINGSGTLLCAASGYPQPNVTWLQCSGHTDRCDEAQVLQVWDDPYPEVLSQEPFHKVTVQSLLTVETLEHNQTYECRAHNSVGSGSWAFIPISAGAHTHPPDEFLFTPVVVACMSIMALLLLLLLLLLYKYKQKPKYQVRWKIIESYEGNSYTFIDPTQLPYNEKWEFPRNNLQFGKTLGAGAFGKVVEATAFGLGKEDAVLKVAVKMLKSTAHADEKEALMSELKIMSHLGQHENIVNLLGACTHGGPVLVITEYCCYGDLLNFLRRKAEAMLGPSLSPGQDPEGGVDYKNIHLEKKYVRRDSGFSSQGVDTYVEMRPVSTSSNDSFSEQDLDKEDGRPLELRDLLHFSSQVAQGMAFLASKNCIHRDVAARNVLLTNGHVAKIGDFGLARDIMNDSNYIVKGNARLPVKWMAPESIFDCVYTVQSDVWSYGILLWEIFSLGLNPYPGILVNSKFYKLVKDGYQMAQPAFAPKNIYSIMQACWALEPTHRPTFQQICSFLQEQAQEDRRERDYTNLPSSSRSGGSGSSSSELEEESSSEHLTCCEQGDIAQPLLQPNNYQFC

Take `CNc1ncnc2[nH]cc(C(=O)c3ccc(NC4CCC(F)(F)CC4)nc3F)c12` [Compound P-4063, [6-[(4,4-difluorocyclohexyl)amino]-2-fluoro-3-pyridyl]-[4-(methylamino)-7H-pyrrolo[2,3-d]pyrimidin-5-yl]methanone]: the half-inhibitory concentration (IC50) is over 10000 nM on CYP2D6, under 10 nM at Fms kinase and under 10 nM at TrkA kinase.

Turning to `CCc1ccc(Nc2ccc(C(=O)c3c[nH]c4ncnc(NCC(C)(C)O)c34)c(F)n2)cn1` [Compound P-4064, [6-[(6-ethyl-3-pyridyl)amino]-2-fluoro-3-pyridyl]-[4-[(2-hydroxy-2-methyl-propyl)amino]-7H-pyrrolo[2,3-d]pyrimidin-5-yl]methanone], the results for the IC50 at CYP2D6, on Fms kinase and on TrkA kinase were over 10000 nM, under 10 nM and under 10 nM, respectively.

Consider `CCc1ccc(Nc2ccc(C(=O)c3c[nH]c4ncnc(N)c34)c(F)n2)cn1` [Compound P-4065, (4-amino-7H-pyrrolo[2,3-d]pyrimidin-5-yl)-[6-[(6-ethyl-3-pyridyl)amino]-2-fluoro-3-pyridyl]methanone], for which the concentration for half-maximal inhibition (IC50) at CYP2D6 was over 10000 nM; at Fms kinase, under 10 nM; on TrkA kinase, under 10 nM.

Take `COc1ccc(Nc2ccc(C(=O)c3c[nH]c4ncnc(NC(C)C)c34)c(F)n2)cn1` [Compound P-4066, [2-fluoro-6-[(6-methoxy-3-pyridyl)amino]-3-pyridyl]-[4-(isopropylamino)-7H-pyrrolo[2,3-d]pyrimidin-5-yl]methanone]: the 50% inhibitory concentration (IC50) at CYP2D6 is over 10000 nM; on Fms kinase, under 10 nM; on TrkA kinase, under 10 nM.

As to `COc1ccc(Nc2ccc(C(=O)c3c[nH]c4ncnc(NCC5CC5)c34)c(F)n2)cn1` [Compound P-4067, [4-(cyclopropylmethylamino)-7H-pyrrolo[2,3-d]pyrimidin-5-yl]-[2-fluoro-6-[(6-methoxy-3-pyridyl)amino]-3-pyridyl]methanone], the figures for the IC50 on CYP2D6, at Fms kinase and at TrkA kinase were over 10000 nM, under 10 nM and under 10 nM, respectively.

In the case of `CCCNc1ncnc2[nH]cc(C(=O)c3ccc(Nc4ccc(OC)nc4)nc3F)c12` [Compound P-4068, [2-fluoro-6-[(6-methoxy-3-pyridyl)amino]-3-pyridyl]-[4-(propylamino)-7H-pyrrolo[2,3-d]pyrimidin-5-yl]methanone], the concentration for half-maximal inhibition (IC50) at CYP2D6 was over 10000 nM; at Fms kinase, under 10 nM; on TrkA kinase it was under 10 nM.

For the compound `COc1ccc(Nc2ccc(C(=O)c3c[nH]c4ncnc(N5CCCCC5)c34)c(F)n2)cn1` [Compound P-4069, [2-fluoro-6-[(6-methoxy-3-pyridyl)amino]-3-pyridyl]-[4-(1-piperidyl)-7H-pyrrolo[2,3-d]pyrimidin-5-yl]methanone], the figures for the IC50 at CYP2D6, on Fms kinase and at TrkA kinase were over 10000 nM, under 1000 nM and under 100 nM, respectively.

On to `COc1ccc(Nc2ccc(C(=O)c3c[nH]c4ncnc(N5CCOCC5)c34)c(F)n2)cn1` [Compound P-4070, [2-fluoro-6-[(6-methoxy-3-pyridyl)amino]-3-pyridyl]-(4-morpholino-7H-pyrrolo[2,3-d]pyrimidin-5-yl)methanone], for which the IC50 at CYP2D6 is over 10000 nM; at Fms kinase, over 1000 nM; on TrkA kinase, over 1000 nM.

In the case of `COc1ccc(Nc2ccc(C(=O)c3c[nH]c4ncnc(NCc5ccc(C(F)(F)F)nc5)c34)c(F)n2)cn1` [Compound P-4071, [2-fluoro-6-[(6-methoxy-3-pyridyl)amino]-3-pyridyl]-[4-[[6-(trifluoromethyl)-3-pyridyl]methylamino]-7H-pyrrolo[2,3-d]pyrimidin-5-yl]methanone], the half-maximal inhibitory concentration (IC50) on CYP2D6 is over 10000 nM; at Fms kinase, under 1000 nM; on TrkA kinase, under 10 nM.

For the compound `COc1ccc(Nc2ccc(C(=O)c3c[nH]c4ncnc(N[C@@H](C)c5ccc(F)cc5)c34)c(F)n2)cn1` [Compound P-4072, [2-fluoro-6-[(6-methoxy-3-pyridyl)amino]-3-pyridyl]-[4-[[(1S)-1-(4-fluorophenyl)ethyl]amino]-7H-pyrrolo[2,3-d]pyrimidin-5-yl]methanone], the half-maximal inhibitory concentration (IC50) at CYP2D6 was 5000 to 10000 nM; on Fms kinase it was under 100 nM; at TrkA kinase it was under 100 nM.

For `COc1ccc(Nc2ccc(C(=O)c3c[nH]c4ncnc(NCC5CCCO5)c34)c(F)n2)cn1` (stereo not drawn) [Compound P-4073, [2-fluoro-6-[(6-methoxy-3-pyridyl)amino]-3-pyridyl]-[4-(tetrahydrofuran-2-ylmethylamino)-7H-pyrrolo[2,3-d]pyrimidin-5-yl]methanone], the IC50 at CYP2D6 was over 10000 nM; at Fms kinase it was under 100 nM; at TrkA kinase, under 10 nM.

`CCN1CCC(Nc2ncnc3[nH]cc(C(=O)c4ccc(Nc5ccc(OC)nc5)nc4F)c23)CC1` [Compound P-4074, [4-[(1-ethyl-4-piperidyl)amino]-7H-pyrrolo[2,3-d]pyrimidin-5-yl]-[2-fluoro-6-[(6-methoxy-3-pyridyl)amino]-3-pyridyl]methanone]: the 50% inhibitory concentration (IC50) was over 10000 nM at CYP2D6, under 100 nM on Fms kinase and under 10 nM on TrkA kinase.

With `COc1ccc(Nc2ccc(C(=O)c3c[nH]c4ncnc(NC5CCCC5)c34)c(F)n2)cn1` [Compound P-4075, [4-(cyclopentylamino)-7H-pyrrolo[2,3-d]pyrimidin-5-yl]-[2-fluoro-6-[(6-methoxy-3-pyridyl)amino]-3-pyridyl]methanone], the IC50 is over 10000 nM on CYP2D6, under 10 nM on Fms kinase and under 10 nM at TrkA kinase.

`COc1ccc(Nc2ccc(C(=O)c3c[nH]c4ncnc(NC5CCC5)c34)c(F)n2)cn1` [Compound P-4076, [4-(cyclobutylamino)-7H-pyrrolo[2,3-d]pyrimidin-5-yl]-[2-fluoro-6-[(6-methoxy-3-pyridyl)amino]-3-pyridyl]methanone]: the half-inhibitory concentration (IC50) at CYP2D6 is over 10000 nM; at Fms kinase, under 10 nM; on TrkA kinase it was under 10 nM.

In the case of `CCC(CC)Nc1ncnc2[nH]cc(C(=O)c3ccc(Nc4ccc(OC)nc4)nc3F)c12` [Compound P-4077, [4-(1-ethylpropylamino)-7H-pyrrolo[2,3-d]pyrimidin-5-yl]-[2-fluoro-6-[(6-methoxy-3-pyridyl)amino]-3-pyridyl]methanone], the IC50 is over 10000 nM on CYP2D6, under 100 nM on Fms kinase and under 10 nM on TrkA kinase.

Usually IC50 stands for the concentration that inhibits the measured activity by half.
